Our source for the AC50 and EC50 values is ChEMBL document CHEMBL1201862, “PubChem BioAssay data set” (2004).

Molecules are shown by their SMILES.

Data set [1] addresses Cytochrome P450 2C19 (Homo sapiens, UniProt P33261). In words: Cytochrome panel assay with activity outcomes. Panel member name: p450-cyp2c19 Compounds with AC50 equal or less than 10 uM are considered active. Type of data set: functional.
Data set [2] has as its target Cytochrome P450 3A4 (Homo sapiens, UniProt P08684).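 Also: CYP3A4 tested as one member of a cytochrome P450 panel screen.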
In data set [3] the target is Cytochrome P450 2C9 (Homo sapiens, UniProt P11712).
In data set [4] the target is T1, Heat shock factor protein 1 (Mus musculus, UniProt P38532).
T1 sequence (P38532 whole entry): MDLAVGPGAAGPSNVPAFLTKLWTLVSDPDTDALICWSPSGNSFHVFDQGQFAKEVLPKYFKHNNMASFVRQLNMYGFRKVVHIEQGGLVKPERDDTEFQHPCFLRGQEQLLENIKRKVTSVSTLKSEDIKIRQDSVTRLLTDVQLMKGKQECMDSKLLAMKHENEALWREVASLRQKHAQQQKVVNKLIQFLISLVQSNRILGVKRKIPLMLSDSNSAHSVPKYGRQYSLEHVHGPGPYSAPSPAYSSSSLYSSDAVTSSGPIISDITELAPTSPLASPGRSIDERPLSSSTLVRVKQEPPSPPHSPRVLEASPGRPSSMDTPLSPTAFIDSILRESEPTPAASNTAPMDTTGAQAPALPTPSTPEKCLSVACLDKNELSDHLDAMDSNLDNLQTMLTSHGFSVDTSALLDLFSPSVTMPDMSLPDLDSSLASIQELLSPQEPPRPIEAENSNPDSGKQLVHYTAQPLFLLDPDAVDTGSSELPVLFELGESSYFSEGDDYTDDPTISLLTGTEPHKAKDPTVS
Briefly: decrease of HSF1-responsive luciferase luminescence – cell-based, NIH3T3, dose retest, confirmation (AID 2382).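 Also: NIH3T3 fibroblasts with HSF1-driven luciferase reporter stressed by proteasome inhibitor MG132; luminescence from HSF1-driven luciferase expression after 8 hours of MG132 stress.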 Type of data set: functional.

Data set [5] addresses Cytochrome P450 2D6 (Homo sapiens, UniProt P10635).

Cytochrome P450 2D6, sequence (P10635 whole entry): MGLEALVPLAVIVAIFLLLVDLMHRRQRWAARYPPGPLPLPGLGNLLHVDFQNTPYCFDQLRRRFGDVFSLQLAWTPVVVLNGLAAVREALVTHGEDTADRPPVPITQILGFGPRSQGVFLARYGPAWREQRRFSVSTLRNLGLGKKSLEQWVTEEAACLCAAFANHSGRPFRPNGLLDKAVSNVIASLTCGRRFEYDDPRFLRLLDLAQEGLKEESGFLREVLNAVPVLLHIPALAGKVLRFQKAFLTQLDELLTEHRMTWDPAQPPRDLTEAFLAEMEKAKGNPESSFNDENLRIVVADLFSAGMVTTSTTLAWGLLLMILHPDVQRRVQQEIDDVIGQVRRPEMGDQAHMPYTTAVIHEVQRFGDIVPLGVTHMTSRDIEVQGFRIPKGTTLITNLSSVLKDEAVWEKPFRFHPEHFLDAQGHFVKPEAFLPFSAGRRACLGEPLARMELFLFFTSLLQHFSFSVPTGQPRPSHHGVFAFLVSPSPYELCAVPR
Cytochrome P450 3A4, sequence (P08684 whole entry): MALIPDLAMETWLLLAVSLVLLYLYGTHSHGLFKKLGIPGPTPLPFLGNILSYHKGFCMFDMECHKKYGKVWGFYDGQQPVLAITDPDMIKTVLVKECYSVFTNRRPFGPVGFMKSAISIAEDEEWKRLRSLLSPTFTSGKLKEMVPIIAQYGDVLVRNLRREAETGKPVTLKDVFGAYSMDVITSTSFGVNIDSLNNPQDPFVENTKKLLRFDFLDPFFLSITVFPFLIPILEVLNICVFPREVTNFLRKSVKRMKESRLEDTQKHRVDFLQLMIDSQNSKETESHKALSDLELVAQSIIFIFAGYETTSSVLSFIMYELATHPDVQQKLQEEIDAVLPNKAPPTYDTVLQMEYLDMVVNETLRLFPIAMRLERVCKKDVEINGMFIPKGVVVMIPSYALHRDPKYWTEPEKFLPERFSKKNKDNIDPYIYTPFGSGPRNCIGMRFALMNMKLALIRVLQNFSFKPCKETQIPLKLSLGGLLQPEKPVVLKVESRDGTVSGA
Cytochrome P450 2C9, sequence (P11712 whole entry): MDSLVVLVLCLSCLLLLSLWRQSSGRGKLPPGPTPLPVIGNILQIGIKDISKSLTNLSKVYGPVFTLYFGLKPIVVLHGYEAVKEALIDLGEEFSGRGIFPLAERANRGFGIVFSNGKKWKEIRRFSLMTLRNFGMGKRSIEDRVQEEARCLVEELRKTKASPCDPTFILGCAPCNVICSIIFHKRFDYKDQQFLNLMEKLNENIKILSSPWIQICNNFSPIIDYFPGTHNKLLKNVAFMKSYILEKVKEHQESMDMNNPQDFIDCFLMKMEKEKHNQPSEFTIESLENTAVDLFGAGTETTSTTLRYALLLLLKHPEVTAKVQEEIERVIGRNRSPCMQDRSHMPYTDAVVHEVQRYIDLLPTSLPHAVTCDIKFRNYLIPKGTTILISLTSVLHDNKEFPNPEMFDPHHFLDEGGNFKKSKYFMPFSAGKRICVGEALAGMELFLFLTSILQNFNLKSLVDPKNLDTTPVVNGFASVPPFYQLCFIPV
Cytochrome P450 2C19, sequence (P33261 whole entry): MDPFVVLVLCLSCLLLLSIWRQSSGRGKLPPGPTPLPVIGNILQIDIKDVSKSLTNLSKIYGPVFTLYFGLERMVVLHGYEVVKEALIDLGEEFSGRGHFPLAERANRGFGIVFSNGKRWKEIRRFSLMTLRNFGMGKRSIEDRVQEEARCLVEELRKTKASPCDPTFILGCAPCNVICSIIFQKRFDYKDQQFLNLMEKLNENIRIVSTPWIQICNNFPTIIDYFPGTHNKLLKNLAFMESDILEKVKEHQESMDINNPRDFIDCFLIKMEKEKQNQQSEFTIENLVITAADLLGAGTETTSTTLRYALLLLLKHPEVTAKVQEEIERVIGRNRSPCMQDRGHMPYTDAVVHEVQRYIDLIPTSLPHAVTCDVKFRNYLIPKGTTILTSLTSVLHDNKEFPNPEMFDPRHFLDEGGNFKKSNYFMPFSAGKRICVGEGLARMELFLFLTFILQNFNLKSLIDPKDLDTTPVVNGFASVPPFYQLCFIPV

As for `Cc1cnn(-c2ccc3nnc(-c4ccc(Cl)cc4)n3n2)c1`, the AC50 (commonly the concentration at which the activity in the assay is half-maximal) in data set [1] (read-out: AC50) is 1.41 µM (inconclusive); in data set [2] it was 1.12 µM (inconclusive); in data set [3], 6.31 µM (inconclusive).

For the molecule `CCCC(=O)Nc1nnc(Cc2ccccc2)s1`, the results for the AC50 in data set [2] and in data set [3] were 15.8 µM (inconclusive) and 10 µM (inconclusive), respectively.

`CC1=CC2=NC(=O)CC(C)(C(=O)N(CC(=O)NC(C)(C)C)Cc3cccs3)N2C=C1` (stereo not drawn): in data set [3], the AC50 is 25.1 µM (inconclusive).

For `O=C(/C(=C(\[O-])c1ccccc1)[n+]1ccc2ccccc2c1)c1ccc([N+](=O)[O-])cc1`, the EC50 (usually the concentration needed to bring the measured effect to its halfway point) in data set [4] is listed as > 195 µM (not active).

For `COCCn1c(=O)cnc2cnc(Oc3ccccc3)nc21`, in data set [2], the AC50 was 25.1 µM (inconclusive).

On to `COc1ccc(O[C@H]2C=C[C@@H](c3ccccc3)O[C@@H]2CO/N=C(\C)CCN2CCCCc3nc(C)c(C)cc32)cc1`, for which the AC50 in data set [3] is 6.31 µM (inconclusive).

Turning to `CC(C)(C)N1[C@@H](CC(=O)O)c2cc(C(F)(F)F)ccc2S1(=O)=O`, the EC50 in data set [4] is recorded as > 195 µM (not active).

Take `COCCNC(=O)[C@H](C)[C@@H]1C[C@@]1(C)[C@@H](NC(=O)OCc1ccccc1)c1ccccc1`: the AC50 in data set [3] was 31.6 µM (inconclusive).

In the case of `CC(C)OCCCn1c(=S)[nH]c2ncccc2c1=O`, the AC50 in data set [3] is 1.78 µM (inconclusive).

Consider `Cc1ccc(S(=O)(=O)c2cc(N3CCOCC3)nc(-c3ccccc3)n2)cc1`, for which the AC50 in data set [3] is 11.2 µM (inconclusive).

As for `Cc1cnc(CNc2ncncc2-c2ccccc2C(F)(F)F)cn1`, the half-maximal activity concentration (AC50) in data set [1] (read-out: AC50) was 39.8 µM (inconclusive); in data set [2], 0.2 µM (inconclusive).

Take `N#CC(C#N)=NNc1ccc2cn[nH]c2c1`: the AC50 was 3.16 µM (inconclusive) in data set [1] (read-out: AC50) and 1.58 µM (inconclusive) in data set [2].

For `COc1ccc(CNC(=O)C(=O)c2cn(CC(=O)N3CCOCC3)c3ccccc23)cc1`, in data set [4], the EC50 is reported as > 195 µM (not active).

As to `COc1ccc2cc3cc(C(=O)NCc4ccccn4)oc3nc2c1`, the AC50 in data set [5] and in data set [2] was 39.8 µM (inconclusive) throughout.

For `Cc1cc(=O)oc(C)c1C(=O)Nc1ccc(Cl)cn1`, the values for the AC50 in data set [1] (read-out: AC50) and in data set [3] were 2.24 µM (inconclusive) and 20 µM (inconclusive), respectively.

Turning to `O=C(NCc1ccc(F)cc1)C(c1ccncc1)N(C(=O)c1csnn1)C1CC1` (stereo not drawn), the AC50 was 11.2 µM (inconclusive) in data set [5] and 8.91 µM (inconclusive) in data set [3].

In the case of `O=C(Nc1ccc(F)cc1Cl)c1ccc2c(=O)n3c(nc2c1)CCCCC3`, the AC50 in data set [1] (read-out: AC50) is 3.98 µM (inconclusive); in data set [2] it was 4.47 µM (inconclusive).

As to `Cc1ccc(N2CC(C(=O)Nc3nnc(SCCN4CCOCC4)s3)CC2=O)cc1` (stereo not drawn), the EC50 in data set [4] is > 195 µM (not active).

Consider `COc1ccc(NC(=O)CN(C)S(=O)(=O)c2ccc3c(c2)CCC(=O)N3)c(OC)c1`, for which the concentration giving a half-maximal response (EC50) in data set [4] is on record as > 195 µM (not active).

As for `COC(=O)c1nn(C23CC4CC(CC(C4)C2)C3)c2c1C(=O)N(c1ccc(F)cc1)C2=O`, the results for the AC50 in data set [1] (read-out: AC50) and in data set [3] were 39.8 µM (inconclusive) and 12.6 µM (inconclusive), respectively.

For the molecule `Cc1nnc(-c2cccc(Br)c2)c2cn(-c3ccccc3Cl)nc12`, the AC50 in data set [5] is 28.2 µM (inconclusive); in data set [2], 39.8 µM (inconclusive).

Take `COCC(=O)N1CCC2(CCCN(C(=O)Nc3ccc(OC)cc3)C2)CC1`: the results for the AC50 result in data set [1] and in data set [2] were “inconclusive” and 39.8 µM (inconclusive), respectively.

In the case of `O=C(Nc1ccc(-n2nncc2-c2ccco2)cc1)c1ccc(F)cc1`, the AC50 in data set [3] is 11.2 µM (inconclusive).

As to `COc1ccc(OC)c(Nc2nc(-c3sc(NC(=O)C(C)(C)C)nc3C)cs2)c1`, the EC50 in data set [4] is > 195 µM (not active).

As for `CCCC1S/C(=N/N=C/c2ccc(OC)cc2)N(Cc2ccc(OC)cc2)C1=O` (stereo not drawn), the AC50 in data set [2] was 1 µM (inconclusive).

Consider `C/C(=N\Nc1nncc2ccccc12)c1ccc(Cl)c([N+](=O)[O-])c1`, for which the EC50 in data set [4] is on record as > 195 µM (not active).
